Measurements as given in ChEMBL document CHEMBL3045421, “5-Nitro-heteroarylidene analogs of 2-thiazolylimino-4-thiazolidinones as a novel series of antibacterial agents” (2013).
Converted amounts (≈) assume the structure as drawn.

Assays:
Format in all cases: functional
Helicobacter pylori [1] = experiment: Antibacterial activity against Helicobacter pylori strain 2 assessed as diameter of growth inhibition zone at 8 ug/disk after 3-5 days by filter paper disk diffusion method; conditions: read-out: DIZ
Helicobacter pylori [2] = experiment: Antibacterial activity against Helicobacter pylori strain 3 assessed as diameter of growth inhibition zone at 8 ug/disk after 3-5 days by filter paper disk diffusion method; conditions: read-out: DIZ
Staphylococcus aureus = experiment: microbe, parasite or virus in culture; conditions: ATCC 6538p, 24 h
Description: Antibacterial activity against Staphylococcus aureus ATCC 6538p assessed as growth inhibition after 24 hr by microdilution method

Helicobacter pylori [3] = experiment: Antibacterial activity against Helicobacter pylori strain 1 assessed as diameter of growth inhibition zone at 16 ug/disk after 3-5 days by filter paper disk diffusion method; conditions: read-out: DIZ
Helicobacter pylori [4] = experiment: Antibacterial activity against Helicobacter pylori strain 2 assessed as diameter of growth inhibition zone at 64 ug/disk after 3-5 days by filter paper disk diffusion method; conditions: read-out: DIZ
Pseudomonas aeruginosa = experiment: microbe, parasite or virus in culture; conditions: ATCC 9027, 24 h
Description: Antibacterial activity against Pseudomonas aeruginosa ATCC 9027 assessed as growth inhibition after 24 hr by microdilution method

Helicobacter pylori [5] = experiment: Antibacterial activity against Helicobacter pylori strain 3 assessed as diameter of growth inhibition zone at 32 ug/disk after 3-5 days by filter paper disk diffusion method; conditions: read-out: DIZ
[6] = tested on: Staphylococcus epidermidis; experiment: microbe, parasite or virus in culture; conditions: ATCC 12228, 24 h
Description: Antibacterial activity against Staphylococcus epidermidis ATCC 12228 assessed as growth inhibition after 24 hr by microdilution method

Klebsiella pneumoniae = experiment: microbe, parasite or virus in culture; conditions: ATCC 10031, 24 h
Description: Antibacterial activity against Klebsiella pneumoniae ATCC 10031 assessed as growth inhibition after 24 hr by microdilution method

Helicobacter pylori [7] = experiment: Antibacterial activity against Helicobacter pylori strain 1 assessed as diameter of growth inhibition zone at 64 ug/disk after 3-5 days by filter paper disk diffusion method; conditions: read-out: DIZ
Bacillus subtilis = experiment: microbe, parasite or virus in culture; conditions: ATCC 6633, 24 h
Description: Antibacterial activity against Bacillus subtilis ATCC 6633 assessed as growth inhibition after 24 hr by microdilution method

Helicobacter pylori [8] = experiment: Antibacterial activity against Helicobacter pylori strain 2 assessed as diameter of growth inhibition zone at 16 ug/disk after 3-5 days by filter paper disk diffusion method; conditions: read-out: DIZ
Helicobacter pylori [9] = experiment: Antibacterial activity against Helicobacter pylori strain 1 assessed as diameter of growth inhibition zone at 8 ug/disk after 3-5 days by filter paper disk diffusion method; conditions: read-out: DIZ
Helicobacter pylori [10] = experiment: Antibacterial activity against Helicobacter pylori strain 3 assessed as diameter of growth inhibition zone at 64 ug/disk after 3-5 days by filter paper disk diffusion method; conditions: read-out: DIZ
Helicobacter pylori [11] = experiment: Antibacterial activity against Helicobacter pylori strain 2 assessed as diameter of growth inhibition zone at 32 ug/disk after 3-5 days by filter paper disk diffusion method; conditions: read-out: DIZ
Escherichia coli = experiment: microbe, parasite or virus in culture; conditions: ATCC 8739, 24 h
Description: Antibacterial activity against Escherichia coli ATCC 8739 assessed as growth inhibition after 24 hr by microdilution method

Helicobacter pylori [12] = experiment: Antibacterial activity against Helicobacter pylori strain 3 assessed as diameter of growth inhibition zone at 16 ug/disk after 3-5 days by filter paper disk diffusion method; conditions: read-out: DIZ
Helicobacter pylori [13] = experiment: Antibacterial activity against Helicobacter pylori strain 1 assessed as diameter of growth inhibition zone at 32 ug/disk after 3-5 days by filter paper disk diffusion method; conditions: read-out: DIZ

O=C1N/C(=N\c2nccs2)S/C1=C\c1ccc([N+](=O)[O-])o1
zone of inhibition at 8 µg/disc (Helicobacter pylori [1]): > 50 mm | zone of inhibition at 8 µg/disc (Helicobacter pylori [2]): > 50 mm | MIC (Staphylococcus aureus): 0.97 µg/mL (≈ 3.01 µM) | zone of inhibition at 16 µg/disc (Helicobacter pylori [3]): > 50 mm | zone of inhibition at 64 µg/disc (Helicobacter pylori [4]): > 50 mm | MIC (Pseudomonas aeruginosa): 0.39 µg/mL (≈ 1.21 µM) | zone of inhibition at 32 µg/disc (Helicobacter pylori [5]): > 50 mm | MIC [6]: 0.006 µg/mL (≈ 0.0186 µM) | MIC (Klebsiella pneumoniae): 1.56 µg/mL (≈ 4.84 µM) | zone of inhibition at 64 µg/disc (Helicobacter pylori [7]): > 50 mm | MIC (Bacillus subtilis): 0.19 µg/mL (≈ 0.589 µM) | zone of inhibition at 16 µg/disc (Helicobacter pylori [8]): > 50 mm | zone of inhibition at 8 µg/disc (Helicobacter pylori [9]): > 50 mm | zone of inhibition at 64 µg/disc (Helicobacter pylori [10]): > 50 mm | zone of inhibition at 32 µg/disc (Helicobacter pylori [11]): > 50 mm | MIC (Escherichia coli): 1.56 µg/mL (≈ 4.84 µM) | zone of inhibition at 16 µg/disc (Helicobacter pylori [12]): > 50 mm | zone of inhibition at 32 µg/disc (Helicobacter pylori [13]): > 50 mm
